Reference: ChEMBL document CHEMBL4346657, “Anticancer activity, dual prooxidant/antioxidant effect and apoptosis induction profile of new bichalcophene-5-carboxamidines” (Eur J Med Chem, 2019)

Experiments:
OVCAR-3 = test: Antiproliferative activity against human OVCAR3 cells assessed as growth inhibition after 48 hrs by sulforhodamine B assay; format: functional; details: OVCAR-3, 48 h
KM12 = test: Antiproliferative activity against human KM12 cells assessed as growth inhibition after 48 hrs by sulforhodamine B assay; format: functional; details: KM12, 48 h
NCI-H460 = test: Antiproliferative activity against human NCI-H460 cells assessed as growth inhibition after 48 hrs by sulforhodamine B assay; format: functional; details: NCI-H460, 48 h
NCI-H322M = test: Antiproliferative activity against human NCI-H322M cells assessed as growth inhibition after 48 hrs by sulforhodamine B assay; format: functional
NCI/ADR-RES = test: Antiproliferative activity against human NCI-ADR-RES cells assessed as growth inhibition after 48 hrs by sulforhodamine B assay; format: functional
PC-3 = test: Antiproliferative activity against human PC3 cells assessed as growth inhibition after 48 hrs by sulforhodamine B assay; format: functional; details: PC-3, 48 h
SNB-19 = test: Antiproliferative activity against human SNB19 cells assessed as growth inhibition after 48 hrs by sulforhodamine B assay; format: functional; details: SNB-19, 48 h
CAKI-1 = test: Antiproliferative activity against human CAKI-1 cells assessed as growth inhibition after 48 hrs by sulforhodamine B assay; format: functional; details: CAKI-1, 48 h
CCRF-CEM = test: Antiproliferative activity against human CCRF-CEM cells assessed as growth inhibition after 48 hrs by sulforhodamine B assay; format: functional
COLO 205 = test: Antiproliferative activity against human COLO205 cells assessed as growth inhibition after 48 hrs by sulforhodamine B assay; format: functional; details: COLO 205, 48 h
Erythrocyte = test: Haemolytic activity in human erythrocytes assessed as induction of hemolysis at 0.625 mM after 30 mins relative to H202; format: cell-based; details: erythrocyte, 0.5 h, 625 µM
SK-MEL-28 = test: Antiproliferative activity against human SK-MEL-28 cells assessed as growth inhibition after 48 hrs by sulforhodamine B assay; format: functional; details: SK-MEL-28, 48 h
SK-MEL-2 = test: Antiproliferative activity against human SK-MEL-2 cells assessed as growth inhibition after 48 hrs by sulforhodamine B assay; format: functional; details: SK-MEL-2, 48 h
MDA-MB-435 = test: Antiproliferative activity against human MDA-MB-435 cells assessed as growth inhibition after 48 hrs by sulforhodamine B assay; format: functional; details: MDA-MB-435, 48 h
K562 = test: Antiproliferative activity against human K562 cells assessed as growth inhibition after 48 hrs by sulforhodamine B assay; format: functional, cell-based; details: K562, 48 h, read-out: IC50
BT-549 = test: Antiproliferative activity against human BT549 cells assessed as growth inhibition after 48 hrs by sulforhodamine B assay; format: functional; details: BT-549, 48 h
HCT-116 [1] = test: Induction of apoptosis in human HCT116 cells assessed as increase in p53 mRNA expression at 100 nM after 6 hrs hrs by SYBR green dye-based qRT-PCR analysis relative to control; format: functional
HCT-116 [2] = test: […] in CDK1 mRNA expression in human HCT116 cells at 100 nM after 6 hrs hrs by SYBR green dye-based qRT-PCR analysis relative to control; format: functional
A498 = test: Antiproliferative activity against human A498 cells assessed as growth inhibition after 48 hrs by sulforhodamine B assay; format: functional; details: A498, 48 h
OVCAR-5 = test: Antiproliferative activity against human OVCAR5 cells assessed as growth inhibition after 48 hrs by sulforhodamine B assay; format: functional; details: OVCAR-5, 48 h
M14 = test: Antiproliferative activity against human M14 cells assessed as growth inhibition after 48 hrs by sulforhodamine B assay; format: functional; details: M14, 48 h
SF-295 = test: Antiproliferative activity against human SF295 cells assessed as growth inhibition after 48 hrs by sulforhodamine B assay; format: functional; details: SF-295, 48 h
WI-38 = test: Cytotoxicity activity against human WI38 cells assessed as reduction in cell viability measured after 48 hrs by MTT assay; format: cell-based; details: WI-38, 48 h
NCI-H226 = test: Antiproliferative activity against human NCI-H226 cells assessed as growth inhibition after 48 hrs by sulforhodamine B assay; format: functional; details: NCI-H226, 48 h
IGROV-1 = test: Antiproliferative activity against human IGROV1 cells assessed as growth inhibition after 48 hrs by sulforhodamine B assay; format: functional; details: IGROV-1, 48 h
ACHN = test: Antiproliferative activity against human ACHN cells assessed as growth inhibition after 48 hrs by sulforhodamine B assay; format: functional
RXF 393 = test: Antiproliferative activity against human RXF393 cells assessed as growth inhibition after 48 hrs by sulforhodamine B assay; format: functional; details: RXF 393, 48 h
HL-60(TB) = test: Antiproliferative activity against human HL-60(TB) cells assessed as growth inhibition after 48 hrs by sulforhodamine B assay; format: functional; details: HL-60, 48 h
SN12C = test: Antiproliferative activity against human SN12C cells assessed as growth inhibition after 48 hrs by sulforhodamine B assay; format: functional
MDA-MB-231 = test: Antiproliferative activity against human MDA-MB-231/ATCC cells assessed as growth inhibition after 48 hrs by sulforhodamine B assay; format: functional; details: MDA-MB-231, 48 h
NCI-H522 = test: Antiproliferative activity against human NCI-H522 cells assessed as growth inhibition after 48 hrs by sulforhodamine B assay; format: functional; details: NCI-H522, 48 h
HCT-15 = test: Antiproliferative activity against human HCT15 cells assessed as growth inhibition after 48 hrs by sulforhodamine B assay; format: functional; details: HCT-15, 48 h
EKVX = test: Antiproliferative activity against human EKVX cells assessed as growth inhibition after 48 hrs by sulforhodamine B assay; format: functional
[3] = test system: Panel NCI-60 (60 carcinoma cell lines); test: Antiproliferative activity against human NCI60 cells assessed as growth inhibition after 48 hrs by sulforhodamine B assay; format: functional
786-0 = test: Antiproliferative activity against human 786-0 cells assessed as growth inhibition after 48 hrs by sulforhodamine B assay; format: functional; details: 786-0, 48 h
UO-31 = test: Antiproliferative activity against human UO31 cells assessed as growth inhibition after 48 hrs by sulforhodamine B assay; format: functional; details: UO-31, 48 h
[4] = Selectivity index, ratio of IC50 for human WI38 cells to GI50 for human NCI60 cells
[5] = Haemolytic activity in human erythrocytes assessed as induction of hemolysis at 5 mM after 30 mins relative to H202; format: cell-based, Erythrocyte; details: read-out: Activity
SK-MEL-5 = test: Antiproliferative activity against human SK-MEL-5 cells assessed as growth inhibition after 48 hrs by sulforhodamine B assay; format: functional; details: SK-MEL-5, 48 h
SNB-75 = test: Antiproliferative activity against human SNB75 cells assessed as growth inhibition after 48 hrs by sulforhodamine B assay; format: functional; details: SNB-75, 48 h
Hs-578T = test: Antiproliferative activity against human Hs578T cells assessed as growth inhibition after 48 hrs by sulforhodamine B assay; format: functional
[6] = Antioxidant activity assessed as ABTS radical scavenging activity by spectrophotometric method relative to ascorbic acid; format: functional

SMILES: N=C(N)c1ccc(-c2ccc(-c3cc(Cl)cc(Cl)c3)o2)o1
- GI50 (OVCAR-3): 1.7 µM
- GI50 (KM12): 1.65 µM
- GI50 (NCI-H460): 1.9 µM
- GI50 (NCI-H322M): 1.62 µM
- GI50 (NCI/ADR-RES): 1.84 µM
- GI50 (PC-3): 1.8 µM
- GI50 (SNB-19): 1.99 µM
- GI50 (CAKI-1): 1.7 µM
- GI50 (CCRF-CEM): 1.87 µM
- GI50 (COLO 205): 1.31 µM
- Activity (Erythrocyte): Non-Toxic
- GI50 (SK-MEL-28): 1.73 µM
- GI50 (SK-MEL-2): 2.02 µM
- GI50 (MDA-MB-435): 1.61 µM
- IC50 (K562): 1.3 µM
- GI50 (BT-549): 1.97 µM
- fold change (FC) (HCT-116 [1]): 1.99
- fold change (FC) (HCT-116 [2]): 0.54
- GI50 (A498): 1.61 µM
- GI50 (OVCAR-5): 1.81 µM
- GI50 (M14): 1.86 µM
- GI50 (SF-295): 1.77 µM
- IC50 (WI-38): 16 µM
- GI50 (NCI-H226): 2.2 µM
- GI50 (IGROV-1): 1.73 µM
- GI50 (ACHN): 1.71 µM
- GI50 (RXF 393): 1.79 µM
- GI50 (HL-60(TB)): 1.62 µM
- GI50 (SN12C): 1.97 µM
- GI50 (MDA-MB-231): 1.85 µM
- GI50 (NCI-H522): 1.73 µM
- GI50 (HCT-15): 1.64 µM
- GI50 (EKVX): 1.64 µM
- GI50 [3]: 1.74 µM
- LC50 [3]: 10.7 µM
- TGI [3]: 3.47 µM
- GI50 (786-0): 1.78 µM
- GI50 (UO-31): 1.71 µM
- Selectivity Index [4]: 9.2
- hemolysis at 0.5 h, 5000 µM [5]: 57.1%
- GI50 (SK-MEL-5): 1.86 µM
- GI50 (SNB-75): 1.41 µM
- GI50 (Hs-578T): 2.22 µM
- fold change (FC) [6]: 0.2

SMILES: N=C(N)c1ccc(-c2ccc(-c3ccc(F)cc3)s2)s1
- GI50 (OVCAR-3): 1.78 µM
- GI50 (KM12): 1.71 µM
- GI50 (NCI-H460): 1.89 µM
- GI50 (NCI-H322M): 1.63 µM
- GI50 (NCI/ADR-RES): 1.79 µM
- GI50 (PC-3): 1.77 µM
- GI50 (SNB-19): 1.97 µM
- GI50 (CAKI-1): 1.68 µM
- GI50 (CCRF-CEM): 1.85 µM
- GI50 (COLO 205): 1.32 µM
- Activity (Erythrocyte): Non-Toxic
- GI50 (SK-MEL-28): 1.73 µM
- GI50 (SK-MEL-2): 1.81 µM
- GI50 (MDA-MB-435): 1.59 µM
- IC50 (K562): 1.21 µM
- GI50 (BT-549): 1.89 µM
- fold change (FC) (HCT-116 [1]): 1.06
- fold change (FC) (HCT-116 [2]): 0.89
- GI50 (A498): 1.95 µM
- GI50 (OVCAR-5): 1.7 µM
- GI50 (M14): 1.89 µM
- GI50 (SF-295): 1.61 µM
- IC50 (WI-38): 13.3 µM
- GI50 (NCI-H226): 1.42 µM
- GI50 (IGROV-1): 1.73 µM
- GI50 (ACHN): 1.71 µM
- GI50 (RXF 393): 1.75 µM
- GI50 (HL-60(TB)): 1.4 µM
- GI50 (SN12C): 1.98 µM
- GI50 (MDA-MB-231): 1.74 µM
- GI50 (NCI-H522): 1.82 µM
- GI50 (HCT-15): 1.34 µM
- GI50 (EKVX): 1.47 µM
- GI50 [3]: 1.77 µM
- LC50 [3]: 12 µM
- TGI [3]: 3.54 µM
- GI50 (786-0): 1.81 µM
- GI50 (UO-31): 1.77 µM
- Selectivity Index [4]: 7.5
- hemolysis at 0.5 h, 5000 µM [5]: 59.7%
- GI50 (SK-MEL-5): 1.81 µM
- GI50 (SNB-75): 1.48 µM
- GI50 (Hs-578T): 2.19 µM
- fold change (FC) [6]: 0.5
